Test results as given in paper PMC5908160, “Inhibition of sperm motility in male macaques with EP055, a potential non-hormonal male contraceptive” (PLoS ONE, 2018).

Experiment: Blood constituents and health monitoring in rhesus males after EP055 infusion
Format: in vivo, Macaca mulatta
Design: Hematocrit: unit not given here
Source text: The physical and behavioral condition of animals are monitored daily at ONPRC. Additional monitoring by Division of Comparative Medicine and/or clinical veterinary staff was provided immediately, at 1 hr, 2 hr and 6 hr post-administration of the contraceptive compound, and daily for up to 30 days after the final drug injection. Criteria used to assess animal health and welfare include: stool and urine quality and quantity, appetite and attitude (bright and alert, quiet, lethargic), pain (not eating, not moving, hunched over, lethargy/disinterest), vomiting, diarrhea, nausea, dehydration (unkempt coat, lack of urine production), and signs of wounds of injury. In addition, the ONPRC Standardized Pain Scoring system is used post-surgically to monitor an animal’s progress and improvement over time. Major criteria include animal appearance, posture, activity (including stool and urine production), vocalization and atypical behaviors.
Prior to infusion of EP055, each male was sedated with ketamine by the surgical staff at ONPRC and transported to the operating room. After positioning in dorsal recumbency, the male was intubated and placed under inhalant (isoflurane) anesthesia. Bilateral intravenous catheters were placed in cephalic veins, one for infusion and one for back-up. A percutaneous arterial line was placed in the right femoral artery for direct blood pressure measurement. Invasive blood pressure, heart rate, SpO2, and respirations were monitored by the surgical staff throughout the procedure. Initially, the low doses of EP055 in 5% DMSO-PBS 7.6 was infused by i.v. at 75-80 mg/kg, using a Medfusion 3500 pump (Smiths Medical, St. Paul, MN), and was started at a low flow rate ([…]). In 3 of 4 males, a 5-10% increase in blood pressure and heart rate were noted within the first 2-3 minutes of infusion of EP055. In these cases, the infusion was temporarily suspended until these parameters subsequently declined to normal. The infusion rate was then doubled to 1.2 ml/kg/min after 5-10 minutes and the final volume of EP055 infusate was administered. Blood pressure and heart rate remained normal throughout the rest of the infusion interval. The total volume of EP055 infusate ranged from 72 ml – 136 ml, depending upon the weight of the animal, and the duration of infusion was 10-13 minutes. Following completion of the infusion, all animals recovered normally. Animals were monitored by clinical veterinary staff immediately, at 1 hr, 2 hr and 6-8 hr post-infusion, and daily for up to 30 days after the final infusion of EP055. […] Two weeks after the infusion of the low dose and collection of the next set of baseline semen samples, males were infused with the high dose of EP055 (125-130 mg/kg) as described above, and monitored similarly.
Blood was collected from the brachial vein at the time of each semen collection, and used to determine complete blood counts and serum biochemistry tests (including electrolytes, glucose, lipids, proteins, enzymes and metabolic by-products) as performed in the Clinical Pathology Laboratory in the Division of Comparative Medicine at ONPRC.

[1] = post high dose 125–130 mg/kg, 6-8 hrs
[2] = post high dose 125–130 mg/kg, 28-30 hrs
[3] = post high dose 125–130 mg/kg, 78 hr
[4] = post low dose 75–80 mg/kg, 6-8 hrs

## COC(=O)NNc1nc(Nc2ccc(NC(C)=O)c(O)c2)nc(SCC(=O)O)n1 [EP055]
3 of 4 males, first 2-3 minutes of low dose infusion (75-80 mg/kg)
  increase in blood pressure and heart rate: 5-10%
After low or high dose
  blood constituents versus baseline levels: no clinically significant difference
During and after drug administration
  side effects, monitoring of blood and organ function: no indications of any side effects or health warning signs
During treatment
  ALT (alanine aminotransferase) and glucose levels: rose during treatment
High dose 125-130 mg/kg
  adverse effects: no adverse effects were observed
High dose, 6 hrs
  neutrophil numbers versus reference range (2.4–9.6 x 10^3/mm^3): slightly above the high end of the reference range
In vivo
  long-term effects on animals: no long- term effects
Low dose 75-80 mg/kg, monitored up to 30 days
  adverse effects: No adverse effects were observed
[1]
  ALT: 49.7 ± 3.6 U/l
  AST: 68.3 ± 6.8 U/l
  Albumin: 4.7 ± 0.1 g/dL
  Alkaline Phosphatase: 94.0 ± 4.8 U/l
  BUN: 18.8 ± 2.3 mg/dL
  Basophils: 0.5 ± 0.1%
  CREAT: 1.0 ± 0.1 mg/dL
  Chloride: 108.7 ± 0.3 mEq/l
  Cholesterol: 146.3 ± 18.1 mg/dL
  Eosinophils: 0.9 ± 0.1%
  Erythrocytes: 6.1 ± 0.2 x 10^6/mm^3
  GGT: 71.0 ± 1.0 U/l
  GLUC: 101.3 ± 10.2 mg/dL
  Hematocrit: 45.2 ± 1.0
  Hemoglobin: 14.7 ± 0.4 g/dL
  Leukocytes: 12.3 ± 1.8 x 10^3/mm^3
  Lymphocytes: 21.6 ± 9.9%
  MCH: 24.2 ± 0.4 pg/cell
  MCHC: 32.5 ± 0.1 g/dL
  MCV: 74.5 ± 1.1 fl/cell
  Magnesium: 2.2 ± 0.1 mg/dL
  Monocytes: 5.2 ± 0.4%
  Neutrophils: 10.3 ± 1.4 x 10^3/mm^3
  Phosphorus: 5.2 ± 0.4 mg/dL
  Platelets: 298.3 ± 39.0 x 10^6
  Potassium: 4.0 ± 0.1 mEq/l
  Sodium: 147.7 ± 0.6 mEq/l
  Total Bilirubin: 0.2 ± 0.1 mg/dL
  Total Protein: 7.6 ± 0.2 g/dL
  Triglycerides: 84.3 ± 19.8 mg/dL
[2]
  ALT: 74.0 ± 10.8 U/l
  AST: 83.3 ± 14.3 U/l
  Albumin: 4.7 ± 0.1 g/dL
  Alkaline Phosphatase: 95.7 ± 3.6 U/l
  BUN: 15.3 ± 2.4 mg/dL
  Basophils: 0.5 ± 0.1%
  CREAT: 1.0 ± 0.0 mg/dL
  Chloride: 108.7 ± 0.6 mEq/l
  Cholesterol: 147.3 ± 23.4 mg/dL
  Eosinophils: 1.4 ± 0.1%
  Erythrocytes: 6.1 ± 0.2 x 10^6/mm^3
  GGT: 71.3 ± 3.4 U/l
  GLUC: 92.0 ± 9.7 mg/dL
  Hematocrit: 45.9 ± 0.9
  Hemoglobin: 15.0 ± 0.4 g/dL
  Leukocytes: 7.7 ± 1.4 x 10^3/mm^3
  Lymphocytes: 32.4 ± 4.3%
  MCH: 24.4 ± 0.3 pg/cell
  MCHC: 32.7 ± 0.2 g/dL
  MCV: 74.8 ± 1.0 fl/cell
  Magnesium: 1.9 ± 0.0 mg/dL
  Monocytes: 5.5 ± 0.6%
  Neutrophils: 5.1 ±0.8 x 10^3/mm^3
  Phosphorus: 3.2 ± 0.6 mg/dL
  Platelets: 301.7 ± 36.5 x 10^6
  Potassium: 4.0 ± 0.1 mEq/l
  Sodium: 149.0 ± 0.0 mEq/l
  Total Bilirubin: 0.2 ± 0.1 mg/dL
  Total Protein: 7.8 ± 0.2 g/dL
  Triglycerides: 59.3 ± 18.5 mg/dL
[3]
  ALT: 53.0 ± 7.3 U/l
  AST: 30.0 ± 3.1 U/l
  Albumin: 4.8 ± 0.1 g/dL
  Alkaline Phosphatase: 101.5 ± 8.7 U/l
  BUN: 18.3 ± 2.2 mg/dL
  Basophils: 0.5 ± 2.3%
  CREAT: 1.0 ± 0.0 mg/dL
  Chloride: 108.5 ± 0.9 mEq/l
  Cholesterol: 152.0 ± 19.4 mg/dL
  Eosinophils: 1.4 ± 4.5%
  Erythrocytes: 5.8 ± 4.5 x 10^6/mm^3
  GGT: 69.3 ± 3.8 U/l
  GLUC: 85.0 ± 8.7 mg/dL
  Hematocrit: 43.3 ± 4.5
  Hemoglobin: 14.1 ± 2.3 g/dL
  Leukocytes: 9.7 ± 2.3 x 10^3/mm^3
  Lymphocytes: 34.6 ± 4.5%
  MCH: 24.3 ± 4.5 pg/cell
  MCV: 74.9 ± 2.3 fl/cell
  Magnesium: 1.9 ± 0.1 mg/dL
  Monocytes: 5.6 ± 2.3%
  Neutrophils: 5.4 ± 1.1 x 10^3/mm^3
  Phosphorus: 4.2 ± 0.8 mg/dL
  Platelets: 292.8 ± 48.1 x 10^6
  Potassium: 4.4 ± 0.2 mEq/l
  Sodium: 149.5 ± 1.2 mEq/l
  Total Bilirubin: 0.1 ± 0.0 mg/dL
  Total Protein: 7.8 ± 0.1 g/dL
  Triglycerides: 68.0 ± 10.6 mg/dL
[4]
  ALT: 44.8 ± 2.0- U/l
  AST: 49.8 ± 3.1 U/l
  Albumin: 4.7 ± 0.0 g/dL
  Alkaline Phosphatase: 129.8 ± 19.2 U/l
  BUN: 17.2 ± 1.9 mg/dL
  Basophils: 0.6 ± 0.1%
  CREAT: 1.0 ± 0.0 mg/dL
  Chloride: 109.3 ± 1.5 mEq/l
  Cholesterol: 154.5 ± 19.0 mg/dL
  Eosinophils: 1.2 ± 0.3%
  Erythrocytes: 5.9 ± 0.2 x 10^6/mm^3
